Read-outs that look alike come from different tables or passages of the source. Blank lines part the entries; values can stand above or below the compound they belong to.
Key:
[1] = tested on: Isolated Heart (coronary arteries); assay: Langendorff's Isolated Heart model (coronary vasodilation)
Protocol: In addition to their utility in the treatment of hypertension, the compounds of formula (I) are useful in the treatment of the symptoms of angina pectoris by virtue of their ability to dilate coronary arteries. Often, peripheral arteries are also dilated by compounds which dilate coronary arteries and thus, this test is also useful for predicting activity as an antihypertensive. Compounds of the invention were tested in this regard in the "Langendorff's Isolated Heart" model as generally described in "Pharmaceutical Experiments on Isolated Preparations", Staff of the Department of Pharmacology, University of Edinbourgh, 2nd Ed., Churchill, Livingston, N.Y. (1970) pages 112-119. In this test, the compound of the invention of formula (I) produced in Example 6b. required a 0.04 μM concentration to elicit a 30% increase in flow.

[2] = tested on: isolated rabbit thoracic aorta (potential-dependent calcium channel); assay: Calcium Entry Blockade test: 45Ca influx in vascular rings; conditions: for calcium channel blocking / calcium entry blockade activity: overall result in words
Description: (§1) A fourth test for determining the ability of compounds of the invention to act as anti-hypertensive agents is the Calcium Entry Blockade test using vascular smooth muscle. Male New Zealand White Rabbits (H.A.R.E.) (body weight=1.8-2.4 kg) are sacrificed by cervical fracture and the thoracic aorta is removed under standard HEPES buffer. The aorta is rinsed in several changes of standard HEPES and cleared of extraneous tissue. Scissors are used to segment the aorta into 3 mm rings (approximately 12 rings/aorta). For studies of tension, individual rings are equilibrated for one hour in standard HEPES buffer under isometric tension (1 g) between two parallel horizontal wires. For calcium influx studies, the following procedures are executed. After completion of the one-hour equilibration period, the test is begun. To baths containing vascular rings to be tested for the effects of an experimental agent on calcium influx in the basal state (absence of an agonist), the agent dissolved in 20 μl of vehicle (PEG 300 or H2 O) is added and a parallel vehicle bath is started receiving the vehicle alone. To baths containing vascular rings to be tested for the effects of an experimental agent on calcium influx during agonist stimulation, the experimental agent is added in a fashion identical to that described for the basal test and parallel vehicle baths are also initiated. All baths are allowed to equilibrate for 30 minutes. Subsequently, to basal test baths, 20 μl of H2 O is added; to baths receiving KCl, 400 μl of H2 O containing 60 mM KCl is added; to baths receiving NE, 20 μl of H2 O containing 10 μM NE is added. All baths are allowed to equilibrate for an additional 281/2 minutes. At this time, all rings in each bath are removed from their respective bath, quickly but gently blotted and transferred to a bath containing an identical solution but also containing ^45 Ca(20 μl, 2.5 μCi/ml; New England Nuclear, Boston, MA). Rings are allowed exposure to the radiolabelled solution for exactly three minutes. Subsequently, the rings are removed, blotted to remove excess fluid, and placed in predesignated test tubes containing ice cold wash solution where they are allowed to equilibrate for 45 minutes in the presence of vigorous bubbling with 100% O2. Subsequently, individual rings are removed, blotted, weighed (Mettler Balance model AE 163), and placed in a scintillation vial containing 2 ml of 7.5 mM EDTA solution (pH=10.0). Vials are held overnight in darkness. […] Subsequently, 13 ml of Beckman HP scintillation fluid is added to each vial with shaking, vials are cleaned, and counted using a Beckman LS 6800 liquid scintillation counter. Blanks containing solutions alone are simultaneously counted to provide background information.
(§2) For tension studies, the following procedures are executed. After completion of the one-hour equilibration period, the test is begun. At this time, all tissue tensions are adjusted mechanically back to the 1 gram baseline. Subsequently, all tissue baths receive either KCl (60 mM) plus phentolamine (1 μM) in 400 μl H2 O or NE (10 μM in 20 μl PEG 300). All rings are allowed to develop tension for exactly 30 minutes. Subsequently, the bathing solution is removed and replaced immediately with normal HEPES buffer without experimental agents and the tension response is allowed to "wash out". Two subsequent washes are introduced at 10 minute intervals before the rings can achieve the prestimulation baseline tone. Subsequently, the experimental drug or vehicle is added to each bath and the rings are allowed to equilibrate for exactly 30 minutes. Finally, the agonist challenge is repeated as described previously in the presence of the experimental agent. […]

[3] = tested on: isolated rabbit thoracic aorta; assay: Calcium Entry Blockade test: tension (tone) of vascular rings; conditions: for inhibition at 10 µM: Oryctolagus cuniculus, 10 μM compound
Description: as §1, §2

Beta Adrenergic = assay: Evaluation of Potential Beta Adrenergic Blocking Activity; design: species or system guinea pig; conditions: overall result in words
[4] = tested on: spontaneously hypertensive rats; assay: Spontaneously Hypertensive Rat (SHR) test, mean arterial pressure via aortic cannula; format: in vivo; conditions: 30 mg per kg of body weight, p.o.
Description: The activity of compounds of formula (I) for the treatment of hypertension may be determined using the Spontaneously Hypertensive Rat (SHR) test as described below.
In this test, the arterial pressure of adult spontaneously hypertensive rats (Charles River) is monitored directly via an aortic cannula. The SH rats are anesthetized with an inhalation anesthetic (ether). The left carotid artery is isolated and cannulated. The tip of the cannula is advanced to the aorta and the cannula is exteriorized behind the neck at the level of the scapula. Animals are placed in individual cages and allowed to recover from the anesthetic and are kept unrestrained. The arterial cannula is connected to the pressure transducer which is attached to the recorder. The test compounds are administered to at least 3 rats at doses selected in the range of 0.1 to 100 mg/kg of body weight by intraperitoneal (i.p.) or oral (p.o.) routes of administration. The arterial pressure and heart rate are monitored for a minimum of 24 hours. A test compound is considered to be active as an antihypertensive agent if the mean arterial pressure (MAP) indicates a fall of >15 mm of Hg. Each animal serves as its own control.

Beta-1 = biological target: T1, Beta-1 (Cavia porcellus, UniProt H0W3H1); conditions: guinea pig atrial pairs, isoproterenol tachycardia, Schild plot; read-out: pA2 (converted)
T1 construct: The atria were mounted in 50 ml baths in Krebs-bicarbonate buffer; from tissue; host or cells: guinea pig atria (isolated atrial pairs, female animals)
T1 sequence (H0W3H1 1-470): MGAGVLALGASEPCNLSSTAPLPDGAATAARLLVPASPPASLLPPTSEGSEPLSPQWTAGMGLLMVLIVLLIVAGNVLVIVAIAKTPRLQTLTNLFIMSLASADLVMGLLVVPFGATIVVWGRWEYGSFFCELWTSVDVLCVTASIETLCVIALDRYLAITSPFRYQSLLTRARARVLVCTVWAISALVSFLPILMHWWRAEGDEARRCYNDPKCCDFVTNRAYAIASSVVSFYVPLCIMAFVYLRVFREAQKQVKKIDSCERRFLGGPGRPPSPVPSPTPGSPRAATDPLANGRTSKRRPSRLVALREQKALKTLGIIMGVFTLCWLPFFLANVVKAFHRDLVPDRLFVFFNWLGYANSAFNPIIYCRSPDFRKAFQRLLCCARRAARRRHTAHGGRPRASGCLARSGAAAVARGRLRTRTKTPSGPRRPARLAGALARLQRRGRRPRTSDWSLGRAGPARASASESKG

[5] = isolated Langendorff test, 0.01 to 3.0 μM
[6] = KCl stimulated, 1.0 and 10.0 μM

Structure (SMILES): COc1ccc(C#Cc2ccccc2)c(OCC(O)CNCCc2ccc(OC)c(OC)c2)c1 (stereo not shown) [Example 6b, 1-[[2-(3,4-Dimethyoxyphenyl)ethyl]amino]-3-[5-methoxy-2-(phenylethynyl)phenoxy]-2-propanol (E)-2-Butenedioate (2:1)]
- EC30 ([1]; Langendorff isolated heart, 30% increase in flow, read-out: concentration required to elicit a 30% increase in flow): 40 nM
- activation at 0.1 µM ([1]; at 0.1 μM): 39%
- coronary vasodilator activity [1, 5]: active coronary vasodilator
- effect on contractile force [1, 5]: no effect
- effect on spontaneous rate [1, 5]: no effect

Structure (SMILES): CC(C)(C)NCC(O)COc1ccccc1C#Cc1ccccc1.Cl (stereo not shown) [Example 1d, 1-[(1,1-Dimethylethyl)amino]-3-[2-(phenylethynyl)phenoxy]-2-propanol Hydrochloride]
- inhibition of KCl stimulated calcium influx ([2]; KCl stimulated, 10 μM compound): 100%
- inhibition of KCl stimulated effects on calcium influx [2, 6]: dose dependent inhibition
- blockade of the potential-dependent calcium channel ([2]; isolated rabbit thoracic aorta): significant blockade
- calcium channel blocking / calcium entry blockade activity ([2]; isolated rabbit thoracic aorta): calcium entry blockade activities
- effect on norepinephrine-induced calcium influx [2]: no effect
- inhibition of KCl stimulated effects on tone [3, 6]: dose dependent inhibition
- inhibition at 10 µM ([3]; KCl stimulated, read-out: inhibition of KCl stimulated tone): 100%
- blockade of related vascular tone ([3]; isolated rabbit thoracic aorta): significant blockade
- effect on norepinephrine-induced tone / tension [3]: no effect
- β-blocking activity (Beta Adrenergic): β-blocking

Structure (SMILES): CN(C)c1ccc(C#Cc2ccccc2OCC(O)CNC(C)(C)C)cc1.O=C(O)/C=C/C(=O)O (stereo not shown) [Example 16, 1-[(1,1-Dimethylethyl)amino]-3-[2-[(4-dimethylaminophenyl)ethynyl]phenoxy]-2-propanol (E)-2-Butenedioate (1:1)]
- effect on KCl-dependent calcium flux ([2]; KCl-dependent, 10 μM compound): no effect
- calcium channel blocking / calcium entry blockade activity ([2]; isolated rabbit thoracic aorta): did not exhibit typical calcium channel blocking activity
- effect on norepinephrine-induced calcium influx [2]: reduced norepinephrine-induced calcium flux
- maximum change in mean arterial blood pressure (fall) [4]: 69 mm of Hg
- inhibition at 10 µM ([3]; KCl-dependent, read-out: reduction of KCl-dependent contractile activity): 50%
- effect on norepinephrine-induced tone / tension [3]: without changing tension

- Kb (Beta-1): 7.08 nM
Structure (SMILES): CC(=O)Nc1cccc(C#Cc2ccccc2OCC(O)CNC(C)(C)C)c1 (stereo not shown) [Example 18, N-[3-[[2-[3-[(1,1-Dimethylethyl)amino]-2-hydroxypropoxy]phenyl]ethynyl]phenyl]acetamide 4-methylbenzene sulfonate]
